Test results reported in publication PMC4721923 (PLoS ONE, 2015).

Legend:
[1] = tested on: SK-ES-1 cells (Ewing's sarcoma); test: Chemosensitivity assay (MTT-assay), SK-ES-1; format: cell-based, human; conditions: 96 hours of incubation, mean ± SEM
Method: (§1) Depending on the characteristics of the cells, two different assays were performed. For adherently growing cells (HaCaT, HT-29, NCI-H460, SK-MEL-3, MG-63, Capan-1), cytotoxic and cytocidal effects were determined in the crystal violet assay, whereas for loosely adherent cells (LNCaP, SK-ES-1) and cells growing in suspension (HEL 92.1.7, Jurkat, U-937) the MTT-assay was used with minor modifications. In brief, 1.5 · 10^3 (HaCaT, HT-29, NCI-H460, SK-MEL-3, MG-63, Capan-1) or 5 · 10^3 (Jurkat, U-937, HEL92.1.7, LNCaP, SK-ES-1) cells per well were seeded into flat-bottom 96-well plates (Sarstedt, Nümbrecht, Germany). All compounds were used as solutions prepared in DMSO and tested at final concentrations (8 replicates per concentration) of 1, 3, 10, 30 and 50 μM. In case of the vehicle control and test compounds, the final DMSO concentration amounted to 0.1%. Absorbance was measured at 580 nm in a 96-well plate reader (GENios pro microplate reader, Tecan, Salzburg, Austria). Effects were quantified as previously described for both assays.

[2] = biological target: T1, OCT1 (Homo sapiens, UniProt O15245); test: Flow cytometric ASP+-uptake inhibition, HEK-OCT1; format: cell-based; conditions: for IC50: IC50, inhibition of ASP+-uptake, HEK-OCT1, 1 μM ASP+, ± SEM (N = 3)
T1 construct: containing the full length SLC22A1 cDNA (NM_003057) encoding the human OCT1 protein; expressed in transfected cells
T1 sequence (O15245 1-554): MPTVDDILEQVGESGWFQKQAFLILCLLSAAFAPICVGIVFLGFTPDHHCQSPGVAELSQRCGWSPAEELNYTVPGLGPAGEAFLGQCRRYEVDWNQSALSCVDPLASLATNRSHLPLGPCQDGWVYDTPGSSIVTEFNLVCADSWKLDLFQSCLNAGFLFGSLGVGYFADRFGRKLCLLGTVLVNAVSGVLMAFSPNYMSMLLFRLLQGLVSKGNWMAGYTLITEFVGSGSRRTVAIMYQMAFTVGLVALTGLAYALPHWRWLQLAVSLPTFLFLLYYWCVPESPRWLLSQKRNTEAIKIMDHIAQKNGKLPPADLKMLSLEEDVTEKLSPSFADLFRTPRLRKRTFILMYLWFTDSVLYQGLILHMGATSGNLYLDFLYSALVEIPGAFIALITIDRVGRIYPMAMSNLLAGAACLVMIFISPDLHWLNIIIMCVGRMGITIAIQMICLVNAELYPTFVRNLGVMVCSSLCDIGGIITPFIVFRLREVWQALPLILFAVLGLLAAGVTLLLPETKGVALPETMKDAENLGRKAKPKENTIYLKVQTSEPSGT
Method: (§2) The previously described fluorescent substrate of organic cation transporters, 4-(4-dimethylaminostyryl)-N-methylpyridinium (ASP^+), was used to determine the function of OCT1 and OCT3 by flow cytometry in the absence and the presence of bendamustine and selected bendamustine esters. HEK293 cells expressing the transporter of interest were trypsinized and washed twice with PBS, prior to re-suspension of 0.5 · 10^6 cells in 500 μL of PBS containing 2% (v/v) FCS. The cells were incubated with ASP^+ (100 μM stock solution in PBS containing 10% DMSO) for 5 minutes, allowing for cellular accumulation, and subsequently analyzed with a FACSCalibur flow cytometer. ASP^+ was excited at 488 nm and the fluorescence was measured using a 530/30 nm and a 585/42 band-pass filter. At least 1 · 10^4 single cells were analyzed by appropriate FSC/SSC gating.
(§3) The cells were pre-incubated with the respective test compound at different concentrations at room temperature for 10 minutes. Afterwards, ASP^+ was added to a final concentration of 1 μM, and the samples were incubated at 37°C in the dark for 5 minutes. Subsequently, the cells were washed, re-suspended in ice-cold PBS/FCS and stored on ice in the dark until measurement.
(§4) The normalized mean fluorescence intensities of the OCT expressing cells, set to 100% in the absence of an inhibitor, were calculated by subtracting the mean fluorescence intensity of unspecific ASP^+ uptake into HEK-Co control cells. The normalized fluorescence intensities in the presence of an inhibitor were plotted against the logarithm of the concentrations of the test compounds to calculate IC50 values. The “log (inhibitor) vs. normalized response-variable slope” equation of GraphPad Prism 5.01 was used for this purpose.

[3] = biological target: T2, OCT3 (Homo sapiens, UniProt O75751); test: Flow cytometric ASP+-uptake inhibition, HEK-OCT3; format: cell-based; conditions: for potency relative to TPA at OCT3: from IC50 values, p ≤ 0.05
T2 construct: expressed in transfected cells; host or cells: HEK293 (HEK-OCT3)
T2 sequence (O75751 1-556): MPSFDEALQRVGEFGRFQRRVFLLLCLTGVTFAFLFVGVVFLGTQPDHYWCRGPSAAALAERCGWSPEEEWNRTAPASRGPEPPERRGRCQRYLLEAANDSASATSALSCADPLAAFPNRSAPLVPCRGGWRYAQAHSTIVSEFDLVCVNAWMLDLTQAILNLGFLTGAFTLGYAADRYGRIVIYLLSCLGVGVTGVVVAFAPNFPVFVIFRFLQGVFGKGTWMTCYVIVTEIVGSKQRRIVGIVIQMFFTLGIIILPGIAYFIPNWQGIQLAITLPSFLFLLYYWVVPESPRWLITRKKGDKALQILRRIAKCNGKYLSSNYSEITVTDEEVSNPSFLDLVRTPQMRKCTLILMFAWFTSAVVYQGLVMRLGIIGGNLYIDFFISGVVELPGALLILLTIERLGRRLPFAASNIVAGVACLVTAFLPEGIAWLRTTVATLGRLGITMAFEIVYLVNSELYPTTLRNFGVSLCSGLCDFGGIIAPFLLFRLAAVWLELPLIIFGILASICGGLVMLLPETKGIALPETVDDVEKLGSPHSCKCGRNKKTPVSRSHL
Method: as §2, §3, §4

[4] = tested on: Capan-1 cells (pancreatic adenocarcinoma); test: Chemosensitivity assay (crystal violet assay), Capan-1; format: cell-based, human; conditions: 96 hours of incubation, mean ± SEM
Method: as §1

[5] = tested on: Jurkat cells; test: Detection of apoptosis (annexin V/propidium iodide assay); format: cell-based, human
Method: Apoptosis was determined by incubating proliferating Jurkat cells with medium containing 1, 2, 4 or 5 at a concentration of 10 μM or 0.1% of DMSO (untreated control). After different periods of incubation (6, 24, 48 hours), samples were analyzed using the Annexin V-FITC apoptosis detection kit l (BD Biosciences, Heidelberg, Germany) according to the manufacturer’s protocol using 10^6 cells/mL. Cells were analyzed using a FACSCalibur flow cytometer (BD Biosciences, Heidelberg, Germany). The compensation was performed for each experiment with annexin V-FITC (530/30 BP filter) and propidium iodide (585/42 BP filter), respectively. At least 1 · 10^4 events were registered per sample and debris as well as cell aggregates were excluded by forward (FSC) versus side scatter (SSC) gates. Raw data were analyzed using FlowJo V10 software (Treestar Inc., Ashland, OR, USA).

SMILES | IC50 [1] [µM] | IC50 ([1]; Homo sapiens, SK-ES1, 96 h) [µM] | IC50 [2] [µM] | inhibition at 5 min, 200 µM ([2]; human, 200 μM (highest examined concentration)) [%] | IC50 [3] [µM] | inhibition at 200 µM ([3]; read-out: inhibition of OCT3) [%] | IC50 [4] [µM] | IC50 ([4]; Homo sapiens, CAPAN-1, 96 h) [µM] | effect on apoptosis compared to the control cells ([5]; 10 μM, regardless of the period of incubation (6, 24, 48 hours)) | potency factor relative to TPA at OCT1 ([2]; from IC50 values) | potency relative to TPA at OCT3 [3] | fraction of early apoptotic cells ([5]; 10 μM, 6 hours) | cells either early apoptotic or secondary necrotic ([5]; 10 μM, 24 hours) | fraction of early apoptotic cells ([5]; 10 μM, 24 hours) | fraction of secondary necrotic cells ([5]; 10 μM, 24 hours) [%] | fraction of secondary necrotic cells ([5]; 10 μM, 48 hours) | viability at 10 µM ([5]; Homo sapiens, Jurkat, 48 h, two days after treatment, read-out: viable cells) [%] | fraction of early apoptotic cells ([5]; 10 μM, 48 hours) [%]
Cn1c(CCCC(=O)O)nc2cc(N(CCCl)CCCl)ccc21 [Compound 1, bendamustine, reference compound] | 9.6 ± 0.3 | ~10 | > 200 | 35 | > 200 | 37 | 18.9 ± 4.5 | < 20 | no effect |  |  |  |  |  |  |  |  | 
Cn1c(CCCC(=O)OCCN2CCCC2)nc2cc(N(CCCl)CCCl)ccc21 [Compound 5] |  | 0.09 ± 0.01 | 0.35 ± 0.03 |  | 3.41 ± 0.16 |  |  | 0.12 ± 0.02 |  | approximately 20 | approximately four | ~ 2.5% | Approximately 50% | 20% | 30 | 70% | ~15 | 
Cn1c(CCCC(=O)OCCN2CCOCC2)nc2cc(N(CCCl)CCCl)ccc21 [Compound 4] | 0.91 ± 0.08 | 0.9 | 10.1 ± 2.5 |  | 5.1 ± 0.02 |  |  | 1.4 ± 0.01 |  |  | approximately four |  |  | approximately 10% |  | 20–25% |  | 15
COC(=O)CCCc1nc2cc(N(CCCl)CCCl)ccc2n1C [Compound 2] | 0.18 ± 0.02 | ~0.2 | 11.3 ± 1.9 |  | 5.1 ± 1.4 |  |  | 0.6 ± 0.04 |  |  | approximately four |  |  | approximately 10% |  | 20–25% |  | 15
